{"source": "patent US20080063702A1", "about": "“Liposomal Formulations Comprising an Amphipathic Weak Base Like Tempamine for Treatment of Neurodegenerative Conditions” (priority 2004, published 2008)", "key": {"[1]": {"system": "PLP injected animals (acute EAE, model for MS)", "assay": "Acute EAE induced with PLP 139-151, clinical signs scoring", "type": "in vivo, SJL female mice"}, "[2]": {"system": "PC12 neurons", "assay": "MPP+ toxicity experiment, LDH leakage assay in NGF-differentiated PC12 cells", "type": "cell-based", "experimental": "PC12 cells were grown in Dulbecco's modified Eagle's medium (DMEM), supplemented with 7% fetal calf serum, 7% horse serum, 100 μg/ml streptomycin, and 100 U/ml penicillin. The cultures were maintained in an incubator at 37° C. in a humidified atmosphere of 6% CO2. The growth medium was changed twice weekly and the cultures were split at 1:6 ratio once a week [Abu-Raya et al. J. Neurosci. Methods 50:197-203 (1993)].\nFor differentiation, an identical number of PC12 cells (3.75×10^5 cells) was plated on 6-wells plates coated with rat tail type I collagen (0.1 mg/ml) to promote cell adhesion [Abu-Raya et al Rasagiline, a monoamine oxidase-B inhibitor, protects NGF-differentiated PC12 cells against oxygen-glucose deprivation. J. Neurosci. Res. 58:456-463 (1999)]. The differentiation of the cultures was induced by treatment with NGF (50 ng/ml), added every 48 hr for a period of 7-8 days.\nCell death was evaluated by measuring the leakage of LDH into the growth medium as previously described [Abu-Raya et al. J. Neurosci. Res. 58:456-463, (1999)]. Samples of 50 μl of the growth medium were collected from each well and centrifuged at 3,500 rpm for 5 min at 25° C.; the supernatant was collected and LDH release was measured using a TRACE LD-L reagent. LDH activity was determined using an ELISA reader (TECAN, SPECTRAFluor PLUS, Grodig, Salzburg, Austria) at 340 nm by following the rate of conversion of oxidized nicotinamide adenine dinucleotide (NAD^+) to the reduced form of (NADH). MPP^+-induced LDH release was expressed as 100% of toxicity compared to control-untreated cultures. Each experiment was performed three times in duplicates (n=6).\nOn the day of the experiment, the NGF containing medium was replaced with fresh one. […]\nMPP^+ was dissolved in growth medium containing NGF and added to each well in a final concentration of 1500 μM. […] The experiment was accomplished when percentage of cell death was in the range 30-60%, measured by the release of LDH into the medium. […]"}}}
{"smiles": "CC1(C)CC(N)CC(C)(C)N1[O]", "note": "[TMN, 2,2,6,6-tetramethylpiperidine-4-amino-1-oxyl]", "values": [{"measurement": "effect on clinical signs of MS, in words", "setting": "[1]; SSL-TMN i.v., 80 nm, compared with Copaxone, Betaferon, empty SSL, free TMN, FIG. 2", "value": "no observed effect against the disease"}, {"measurement": "#dead", "setting": "[1]; Table 4B", "value": 1}, {"measurement": "MDD", "setting": "[1]; Table 4B", "value": "19 ± 1.2"}, {"measurement": "MDO", "setting": "[1]; Table 4B", "value": "14 ± 0.5"}, {"measurement": "MMS", "setting": "[1]; Table 4B", "value": "3.9 ± 0.53"}, {"measurement": "Mean score", "setting": "[1]; Table 4B", "value": "3.5 ± 0.21"}, {"measurement": "Incidence", "setting": "[1]; Table 4B, free TMN at same concentration as encapsulated in the liposomes", "value": "5/5"}, {"measurement": "toxicity to the cells at higher concentration (bell shape)", "setting": "[2]; 500 μM-1000 μM TMN", "value": "toxic to the cells"}, {"measurement": "protection of PC12 neurons from oxidative damage inflicted by MPP+ (LDH release)", "setting": "[2]; 1500 μM MPP+, TMN 0.1-100 μM added 1 hr before, LDH after 48 hr, FIG. 1", "value": "protects PC12 neurons from oxidative damage"}, {"measurement": "most effective TMN concentration for protection against MPP+", "setting": "[2]; 1500 μM MPP+, dose response 0.1-1000 μM", "value": 100, "unit": "µM"}]}
